The values below come from PMC11677535, “Eremophilane- and Acorane-Type Sesquiterpenes from the Deep-Sea Cold-Seep-Derived Fungus Furcasterigmium furcatum CS-280 Cultured in the Presence of Autoclaved Pseudomonas aeruginosa QDIO-4” (Marine Drugs, 2024).

For this test, the target named is T1, COX-2 (cyclooxygenase-2) (Homo sapiens, UniProt P35354).
T1 construct: gene PTGS2
T1 sequence (P35354 18-604): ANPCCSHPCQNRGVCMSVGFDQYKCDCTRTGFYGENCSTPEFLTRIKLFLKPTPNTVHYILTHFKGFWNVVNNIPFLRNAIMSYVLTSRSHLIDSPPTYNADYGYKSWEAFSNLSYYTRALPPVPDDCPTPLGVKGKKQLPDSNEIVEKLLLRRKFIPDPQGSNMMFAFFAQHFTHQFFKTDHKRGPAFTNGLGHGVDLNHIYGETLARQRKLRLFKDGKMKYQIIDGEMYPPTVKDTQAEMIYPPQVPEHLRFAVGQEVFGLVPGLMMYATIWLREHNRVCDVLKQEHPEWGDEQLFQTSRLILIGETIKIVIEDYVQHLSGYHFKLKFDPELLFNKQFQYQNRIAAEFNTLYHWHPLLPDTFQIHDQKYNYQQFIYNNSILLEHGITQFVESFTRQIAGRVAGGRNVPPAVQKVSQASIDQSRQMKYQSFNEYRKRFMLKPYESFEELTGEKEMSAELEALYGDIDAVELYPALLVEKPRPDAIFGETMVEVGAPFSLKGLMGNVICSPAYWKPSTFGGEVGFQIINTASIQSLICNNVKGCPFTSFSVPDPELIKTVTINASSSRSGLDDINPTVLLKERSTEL
Briefly: biochemical.

A word on the IC50: it is the concentration at which inhibition is half-maximal. Read a high IC50 as weaker potency in that assay. `CC(=O)O[C@H]1[C@@H](O)C=C2C[C@@]3(O)OC[C@@]4(C)O[C@]43C[C@]2(C)[C@H]1C` [compound 2, fureremophilane B] registered an IC50 of 123 µM.
As for `CC(=O)O[C@H]1C=C2C[C@@]3(O)OC[C@@]4(C)O[C@]43C[C@]2(C)[C@@H](C)[C@H]1O` [compound 3, fureremophilane C], the figure is 93.4 µM.
